Tests used:
HCT116^+/+ = experiment: Antiproliferative assay (MTS, 72 h) on HCT116 wild type; assay type: cell-based, human; conditions: Homo sapiens, HCT-116; MTS, 72 h incubation; read-out: Activity IC50 HCT116^+/+
Experimental: (§1) All of the synthesized compounds were tested for their antiproliferative activity against human colon cancer (Table 1). We used both the wild-type and p53-negative cell lines (HCT116^+/+ and HCT116^−/−, respectively). Mutations in the TP53 gene are present in more than 50% of all cancers and often specifically correspond to a difficult therapy, resistance or a bad prognosis[60]–[63]. The active compounds were additionally tested for their cytotoxicity against normal human fibroblasts. We used 5-fluorouracil (5-FLU), doxorubicin (DOX) and CP-31398 as the standards. 5-FLU is one of the first antimetabolites that was dedicated for cancer treatment and is still used for a wide range of cancers including colon carcinoma. Doxorubicin is a DNA topoisomerase II poison with a high intercalating potency, which is able to induce apoptosis through the p53 pathway. Although DOX has been described as being ineffective in some p53 mutants, its level of activity against the p53 null lines is similar. CP-31398, on the other hand, is an experimental drug in the clinical phase and its mechanism of action is through the reactivation some of p53 mutants. Its activity against the p53 null cell lines is greatly diminished and is actually lower than its cytotoxicity.
(§2) The human colon cancer cell line HCT116 wild type was obtained from ATCC and the normal human fibroblast cell lines NHDF were obtained from PromoCell. The human colon cancer cell line HCT116 with a p53 deletion (p53^−/−) was kindly provided by Prof. M. Rusin from the Maria Sklodowska-Curie Memorial Cancer Centre and Institute of Oncology in Gliwice, Poland[89]. The cells were grown as monolayer cultures in Dulbecco’s modified Eagle’s medium with the antibiotic gentamicin (200 μL/100 mL medium) in 75 cm^2 flasks (Nunc). The DMEM for the HCT116 were supplemented with 12% heat-inactivated fetal bovine serum (Sigma-Aldrich, St. Louis, MO, USA) and for NHDF with 15% non-inactivated fetal bovine serum (Sigma Aldrich, St. Louis, MO, USA). The cells were cultured under standard conditions at 37 °C in a humidified atmosphere at 5% CO2.
(§3) The cells were seeded in 96-well plates (Nunc) at a density of 5,000 cells/well (HCT116) and 4,000 cells/well (NHDF) and incubated at 37 °C for 24 h. The assay was performed following a 72 h incubation with varying concentrations of the compounds that were being tested. Then, 20 µL of CellTiter 96® AQueous One Solution-MTS (Promega) was added to each well (with 100 µL DMEM without phenol red) and incubated for 1 h at 37 °C. The optical densities of the samples were analyzed at 490 nm using a Synergy 4 multi-plate reader (BioTek, Winooski, VT, USA). The results are expressed as the percentage of the control and were calculated as the inhibitory concentration (IC50) values (using a GraphPad Prism 7). The IC50 parameter was defined as the compound concentration that was necessary to reduce the proliferation of cells to 50% of the untreated control. Each individual compound was tested in triplicate in a single experiment with each experiment being repeated three or four times.

NHDF = experiment: Cytotoxicity (MTS, 72 h) against normal human fibroblasts; assay type: cell-based; conditions: Homo sapiens, NHDF; MTS, 72 h incubation
Experimental: as §1, §2, §3

HCT116^−/− = experiment: Antiproliferative assay (MTS, 72 h) on HCT116 with p53 deletion; assay type: cell-based, human; conditions: for IC50: Homo sapiens, HCT-116, MTS, 72 h incubation
Experimental: as §1, §2, §3

| Compound | IC50 (HCT116^+/+) [µM] | IC50 (NHDF) [µM] | IC50 (HCT116^−/−) [µM] | melting point [°C] | selectivity towards the p53 null cells (HCT116 p53^−/− vs wild type) (HCT116^−/−) |
| --- | --- | --- | --- | --- | --- |
| O=C(Nc1ccc(F)c(F)c1F)c1ccc2ccccc2c1O [4i] | 4.28 ± 0.66 | > 25 | 4.43 ± 0.66 | 173 to 175 |  |
| O=C(Nc1c(Br)cc(F)c(Cl)c1Br)c1ccc2ccccc2c1O [6m] | > 25 |  | > 25 | 244 to 247 |  |
| O=C(Nc1cc(F)cc(F)c1)c1ccc2ccccc2c1O [4h] | 1.79 ± 0.44 | 9.87 ± 0.66 | 2.24 ± 0.3 | 199 to 200 |  |
| O=C(Nc1ccc(F)c(C(F)(F)F)c1)c1ccc2ccccc2c1O [7m] | 12 ± 3.68 | > 25 | 14.5 ± 4.53 | 164 to 166 |  |
| COc1ccc(C)cc1NC(=O)c1ccc2ccccc2c1O [2j] | > 25 |  | > 25 | 106 to 108 |  |
| O=C(Nc1cc(Cl)ccc1F)c1ccc2ccccc2c1O [4s] | 8.66 ± 1.61 | > 25 | 10.7 ± 1.73 | 169 to 171 |  |
| O=C(Nc1ccc(F)cc1F)c1ccc2ccccc2c1O [4d] | 6.55 ± 0.83 | > 25 | 11.4 ± 1.92 | 185 to 187 |  |
| O=C(Nc1ccc(Cl)cc1F)c1ccc2ccccc2c1O [4q] | 9.89 ± 3.26 | > 25 | 9.69 ± 3.13 | 163 to 165 |  |
| O=C(Nc1ccc(F)cc1C(F)(F)F)c1ccc2ccccc2c1O [7g] | > 25 |  | > 25 | 135 to 137 |  |
| COc1ccc(OC)c(NC(=O)c2ccc3ccccc3c2O)c1 [2d, N-(2,5-dimethoxyphenyl)−1-hydroxynaphthalene-2-carboxamide] | > 25 |  | > 25 | 116 to 119 |  |
| COc1cc([N+](=O)[O-])ccc1NC(=O)c1ccc2ccccc2c1O [2g] | 2.62 ± 0.85 | 7.53 ± 2.97 | 3.73 ± 1.09 | 250 to 253 |  |
| Cc1ccc(C(F)(F)F)cc1NC(=O)c1ccc2ccccc2c1O [3i] | 8.41 ± 1.07 | > 25 | 5.08 ± 1.23 | 140 to 143 |  |
| O=C(Nc1ccc(C(F)(F)F)cc1Br)c1ccc2ccccc2c1O [6i] | 3.58 ± 1.25 | 18.4 ± 1.23 | 2.19 ± 0.67 | 168 to 170 |  |
| O=C(Nc1cc(F)ccc1F)c1ccc2ccccc2c1O [4e] | 4.76 ± 0.76 | > 25 | 15.1 ± 6.75 | 153 to 155 |  |
| O=C(Nc1c(F)cccc1F)c1ccc2ccccc2c1O [4f] | > 25 |  | > 25 | 197 to 200 |  |
| O=C(Nc1cc(F)c(F)c(F)c1)c1ccc2ccccc2c1O [4l] | 1.19 ± 0.31 | 10 ± 0.54 | 1.42 ± 0.25 | 242 to 247 |  |
| O=C(Nc1c(Br)cc(C(F)(F)F)cc1Br)c1ccc2ccccc2c1O [6l] | 9.37 ± 0.47 | 20.4 ± 1.16 | 6.81 ± 2.66 | 183 to 186 |  |
| O=C(Nc1ccc(F)cc1Cl)c1ccc2ccccc2c1O [5m] | 7.57 ± 2.16 | > 25 | 8.29 ± 2.92 | 162 to 166 |  |
| O=C(Nc1c(Cl)cc(C(F)(F)F)cc1Cl)c1ccc2ccccc2c1O [5v] | > 25 |  | > 25 | 191 to 194 |  |
| O=C(Nc1cc(F)cc(C(F)(F)F)c1)c1ccc2ccccc2c1O [4×] | 9.01 ± 0.45 | 24.1 ± 2.02 | > 25 | 165 to 167 |  |
| Cc1ccc(NC(=O)c2ccc3ccccc3c2O)cc1C(F)(F)F [7l] | > 25 |  | > 25 | 168 to 171 |  |

| Compound | IC50 (HCT116^+/+) [µM] | IC50 (NHDF) [µM] | IC50 (HCT116^−/−) [µM] | melting point [°C] | selectivity towards the p53 null cells (HCT116 p53^−/− vs wild type) (HCT116^−/−) |
| --- | --- | --- | --- | --- | --- |
| COc1ccc(Cl)c(NC(=O)c2ccc3ccccc3c2O)c1 [5p] | 24.1 ± 2.58 | > 25 | 19.3 ± 2.09 | 159 to 161 |  |
| O=C(Nc1ccc(Cl)c(C(F)(F)F)c1)c1ccc2ccccc2c1O [7n] | 9.66 ± 3.17 | > 25 | 18.7 ± 2.78 | 173 to 175 |  |
| O=C(Nc1ccc(Br)c(F)c1)c1ccc2ccccc2c1O [4v] | 10.9 ± 2.69 | > 25 | 12.4 ± 1.11 | 199 to 202 | not selective |
| O=C(Nc1cc(Br)ccc1F)c1ccc2ccccc2c1O [4t] | 11.9 ± 1.28 | > 25 | 14 ± 2.2 | 174 to 177 |  |
| Cc1cc(C)c(NC(=O)c2ccc3ccccc3c2O)c(C)c1 [3g] | > 25 |  | > 25 | 160 to 163 |  |
| O=C(Nc1ccc(Br)cc1F)c1ccc2ccccc2c1O [4r] | 15 ± 4.82 | > 25 | 3.43 ± 0.69 | 172 to 174 | roughly 4.5 fold |
| O=C(Nc1cc(F)c(C(F)(F)F)cc1F)c1ccc2ccccc2c1O [4z] | 4.22 ± 0.87 | 18.4 ± 0.91 | 2.82 ± 0.77 | 229 to 231 |  |
| O=C(Nc1cc(C(F)(F)F)ccc1F)c1ccc2ccccc2c1O [4u] | 10.1 ± 2.61 | > 25 | 7.45 ± 1.74 | 190 to 192 |  |
| COc1ccc(NC(=O)c2ccc3ccccc3c2O)cc1C(F)(F)F [7k] | > 25 |  | > 25 | 183 to 186 |  |
| COc1ccc(C)c(NC(=O)c2ccc3ccccc3c2O)c1 [3h] | 11.7 ± 3.81 | > 25 | > 25 | 128 to 130 |  |
| O=C(Nc1cccc(C(F)(F)F)c1F)c1ccc2ccccc2c1O [4p] | 6.5 ± 1.16 | 24.4 ± 2.51 | 5.45 ± 1.72 | 174 to 175 |  |
| O=C(Nc1cccc(Cl)c1F)c1ccc2ccccc2c1O [4o] | 8.78 ± 2.18 | > 25 | 6.76 ± 2.37 | 172 to 174 |  |
| O=C(Nc1c(F)c(F)c(F)c(F)c1F)c1ccc2ccccc2c1O [4n] | 11.6 ± 0.74 | > 25 | 17.5 ± 0.76 | 230 to 234 |  |
| O=C(Nc1cc(F)ccc1Br)c1ccc2ccccc2c1O [6j] | 7.78 ± 1.37 | > 25 | 5.83 ± 1.06 | 187 to 190 |  |
| O=C(Nc1ccc(Br)c(C(F)(F)F)c1)c1ccc2ccccc2c1O [7o] | > 25 | > 25 | 13.9 ± 3.75 | 172 to 173 |  |
| O=C(Nc1c(F)c(F)cc(F)c1F)c1ccc2ccccc2c1O [4m] | 12 ± 0.92 | > 25 | > 25 | 160 to 163 |  |
| O=C(Nc1c(F)cc(F)cc1F)c1ccc2ccccc2c1O [4k] | > 25 |  | > 25 | 180 to 184 |  |
| O=C(Nc1cc(F)c(F)cc1F)c1ccc2ccccc2c1O [4j] | 1.87 ± 0.35 | 24.52 ± 0.03 | 4.75 ± 0.05 | 201 to 204 |  |
| O=C(Nc1ccc(F)c(F)c1)c1ccc2ccccc2c1O [4g] | 3.04 ± 0.06 |  | 5.88 ± 0.5 | 153 to 156 |  |
| COc1cccc(C)c1NC(=O)c1ccc2ccccc2c1O [2k] | > 25 |  | > 25 | 177 to 179 |  |
| COc1ccc([N+](=O)[O-])cc1NC(=O)c1ccc2ccccc2c1O [2h] | 7.05 ± 1.75 | > 25 | 7.42 ± 2.05 | 215 to 218 |  |

Reference: PMC6476888, “Design and synthesis of anticancer 1-hydroxynaphthalene-2-carboxanilides with a p53 independent mechanism of action” (Scientific Reports, 2019)
